According to patent US20130184257A1, “PIPERIDINYL-SUBSTITUTED LACTAMS AS GPR119 MODULATORS” (priority 2010, published 2013):

System: modified version of the GPR119 receptor (94% identity to human receptor) stably expressed in HEK-293 cells
Assay: cAMP Production Assay (LANCE cAMP kit, TR-FRET)
Assay type: cell-based
Conditions: for cAMP production in HEK-293 cells: HEK-293 cells expressing modified GPR119, test compounds 0.2 nM to 10 μM, one-hour incubation at ambient temperature; for Fold over baseline: increase in cAMP relative to basal levels, 1.5-fold or greater = agonist activity
Procedure, shortened: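 Doxycycline-induced (1 μg/mL, overnight) HEK-293 cells expressing modified GPR119 were thawed, 2000 cells/well, and exposed to compounds (0.2 nM-10 μM final, 0.5% DMSO) for 1 h at ambient temperature in HBSS/HEPES/BSA. cAMP was measured by LANCE TR-FRET against a standard curve. Agonism was defined as ≥1.5-fold over basal.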

`CC(C)(c1nc(N2CCC(N3CC[C@H](Nc4ccc(S(C)(=O)=O)cc4F)C3=O)CC2)no1)C(F)(F)F` [Example 39, (S)-3-(2-fluoro-4-(methylsulfonyl)-phenylamino)-1-(1-(5-(1,1,1-trifluoro-2-methylpropan-2-yl)-1,2,4-oxadiazol-3-yl)piperidin-4-yl)pyrrolidin-2-one] was tested, and the “cAMP production in HEK-293 cells” value was 8.7 nmol and the Fold over baseline was 2.9.

With `CC(F)(F)c1noc(N2CCC(N3CCC[C@H](Nc4c(F)cc(S(C)(=O)=O)cc4F)C3=O)CC2)n1` [Example 62, (S)-3-((2,6-difluoro-4-(methylsulfonyl)phenyl)amino)-1′-(3-(1,1-difluoroethyl)-1,2,4-oxadiazol-5-yl)-[1,4′-bipiperidin]-2-one] the “cAMP production in HEK-293 cells” value was 16.2 nmol and the Fold over baseline was 2.6.

With `CS(=O)(=O)c1cc(F)c(N[C@H]2CCN(C3CCN(c4noc(C(F)(F)F)n4)CC3)C2=O)c(F)c1` [Example 22, (S)-3-(2,6-difluoro-4-(methylsulfonyl)phenylamino)-1-(1-(5-(trifluoromethyl)-1,2,4-oxadiazol-3-yl)piperidin-4-yl)pyrrolidin-2-one] the “cAMP production in HEK-293 cells” value was 17.6 nmol and the Fold over baseline was 3.6.

For `CS(=O)(=O)c1ccc(O[C@H]2CCN(C3CCN(c4noc(C(F)(F)F)n4)CC3)C2=O)cn1` [Example 56, (S)-3-((6-(methylsulfonyl)pyridin-3-yl)oxy)-1-(1-(5-(trifluoromethyl)-1,2,4-oxadiazol-3-yl)piperidin-4-yl)pyrrolidin-2-one], the “cAMP production in HEK-293 cells” value was 21.1 nmol and the Fold over baseline was 3.3.

With `CS(=O)(=O)c1cc(F)c(N[C@H]2CCN(C3CCN(c4noc(C(F)F)n4)CC3)C2=O)c(F)c1` [Example 31, (S)-3-(2,6-difluoro-4-(methylsulfonyl)phenylamino)-1-(1-(5-(difluoromethyl)-1,2,4-oxadiazol-3-yl)piperidin-4-yl)pyrrolidin-2-one] the “cAMP production in HEK-293 cells” value was 4.9 nmol and the Fold over baseline was 2.3.

With `CC(F)(F)c1nc(N2CCC(N3CC[C@H](Oc4cc(F)c(S(C)(=O)=O)cc4F)C3=O)CC2)no1` [Example 52, (S)-3-(2,5-difluoro-4-(methylsulfonyl)phenoxy)-1-(1-(5-(1,1-difluoroethyl)-1,2,4-oxadiazol-3-yl)piperidin-4-yl)pyrrolidin-2-one] the “cAMP production in HEK-293 cells” value was 15.5 nmol and the Fold over baseline was 5.8.

For `CS(=O)(=O)c1cc(F)c(O[C@H]2CCN(C3CCN(c4noc(-c5ccccc5)n4)CC3)C2=O)cc1F` [Example 17, (S)-3-(2,5-difluoro-4-(methylsulfonyl)phenoxy)-1-(1-(5-phenyl-1,2,4-oxadiazol-3-yl)piperidin-4-yl)pyrrolidin-2-one], the “cAMP production in HEK-293 cells” value was 28.3 nmol and the Fold over baseline was 4.8.

With `CS(=O)(=O)c1cc(F)c(O[C@@H]2CCN(C3CCN(c4noc(C(F)(F)F)n4)CC3)C2=O)cc1F` (single isomer, unassigned) [Example 66] the “cAMP production in HEK-293 cells” value was 8.7 nmol and the Fold over baseline was 2.7.
